Experimental data: article PMC12797170, “Potent Competitive Inhibitors of Ecto-5′-nucleotidase (CD73) based on 6‑(Het)aryl-7-deazapurine Ribonucleoside 5′‑O‑Bisphosphonates” (ACS Pharmacology & Translational Science, 2025)
Read-outs that look alike come from different tables or passages of the source.

How the values were obtained:
[1] = In vivo pharmacokinetic study, intravenous; set-up: species or system male CD-1 mice; conditions: for half-life / clearance: plasma, 1 mg/kg; for half-life: footnote: t1/2 stability in plasma, text: half-life in mouse PK; for unbound plasma exposure relative to mouse CD73 Ki: mouse PK, unbound via mouse PPB, all time points
Method in brief: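 Single intravenous dose in male CD-1 mice (n=3, 9 weeks, 29.2–33.7 g). Plasma levels measured by LC-MS/MS at 5, 15, 30, 60, 120, 240 and 480 min.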

CYP1A2 = molecular target: T1, CYP1A2 (Homo sapiens, UniProt P05177); experiment: In vitro CYP450 inhibition assay (Vivid); assay type: biochemical; conditions: probe fluorogenic Vivid CYP450 substrate (not named)
T1 construct: assay run by Bienta (Enamine Biology Services)
T1 sequence (P05177 2-516 limits assumed): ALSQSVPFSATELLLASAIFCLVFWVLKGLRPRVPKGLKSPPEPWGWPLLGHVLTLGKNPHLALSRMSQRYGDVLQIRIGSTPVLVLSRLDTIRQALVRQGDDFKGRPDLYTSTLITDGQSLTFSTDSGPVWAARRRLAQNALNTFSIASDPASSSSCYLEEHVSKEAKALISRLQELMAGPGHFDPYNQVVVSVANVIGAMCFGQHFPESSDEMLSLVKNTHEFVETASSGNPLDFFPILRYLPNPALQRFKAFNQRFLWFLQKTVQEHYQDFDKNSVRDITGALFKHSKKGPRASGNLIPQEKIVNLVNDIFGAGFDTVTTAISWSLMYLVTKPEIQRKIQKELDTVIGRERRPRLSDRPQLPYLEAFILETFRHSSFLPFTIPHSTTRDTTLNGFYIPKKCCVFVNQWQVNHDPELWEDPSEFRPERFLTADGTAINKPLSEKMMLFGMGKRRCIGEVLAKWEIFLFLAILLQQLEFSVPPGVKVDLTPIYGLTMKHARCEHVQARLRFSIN
Procedure: (§1) The study was performed by Bienta (Enamine Biology Services). The potential for CYP450 inhibition (isoforms 1A2, 2C9, 2C19, 2D6, and 3A4) was assessed by performing in vitro inhibition studies using fluorogenic CYP450 substrates with the corresponding CYP450 enzymes and NADPH regeneration system (Vivid CYP450 Screening Kits) with some minor changes to the manufacturer’s protocols. The fluorescent signal produced from the reaction is directly proportional to the cytochrome P450 activity. In the cases when tested compounds interfere with the CYP450 enzyme–substrate reaction, the fluorescent signal decreases.
(§2) Briefly, the tested compounds were first dissolved in DMSO at 100× concentration (1 mM) and diluted in buffer to 2.5× concentration (25 μM). […] After 10 min of preincubation, the enzymatic reaction was initiated by the addition of a mix of NADPH and the appropriate CYP450 substrates. The plate was incubated for the desired reaction time (25 min for CYP1A2, CYP2C9, CYP2D6, and CYP3A4; 60 min for CYP2C19) after which Stop Reagent was added and fluorescence measured using SpectraMax Paradigm Multi-Mode Microplate Reader. All test points were performed in quadruplicates at a concentration of 10 μM (1% DMSO).

CYP2C19 = molecular target: T2, CYP2C19 (Homo sapiens, UniProt P33261); experiment: In vitro CYP450 inhibition assay (Vivid); assay type: biochemical; conditions: probe fluorogenic Vivid CYP450 substrate (not named)
T2 construct: assay run by Bienta (Enamine Biology Services)
T2 sequence (P33261 whole entry): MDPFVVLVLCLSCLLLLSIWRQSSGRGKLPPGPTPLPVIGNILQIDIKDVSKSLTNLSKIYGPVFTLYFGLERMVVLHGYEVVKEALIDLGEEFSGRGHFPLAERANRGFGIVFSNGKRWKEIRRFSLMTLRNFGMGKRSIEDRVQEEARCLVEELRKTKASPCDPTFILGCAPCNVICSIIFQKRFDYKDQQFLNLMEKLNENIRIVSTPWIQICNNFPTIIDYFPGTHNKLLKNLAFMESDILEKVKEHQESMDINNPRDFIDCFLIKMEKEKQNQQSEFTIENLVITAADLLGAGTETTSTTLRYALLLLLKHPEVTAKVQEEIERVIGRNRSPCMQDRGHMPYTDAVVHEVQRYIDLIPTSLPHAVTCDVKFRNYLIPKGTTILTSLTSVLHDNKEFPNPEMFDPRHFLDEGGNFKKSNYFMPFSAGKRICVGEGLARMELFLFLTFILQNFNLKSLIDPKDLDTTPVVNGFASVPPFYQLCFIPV
Procedure: as §1, §2

CYP2C9 = molecular target: T3, CYP2C9 (Homo sapiens, UniProt P11712); experiment: In vitro CYP450 inhibition assay (Vivid); assay type: biochemical; conditions: probe fluorogenic Vivid CYP450 substrate (not named)
T3 construct: assay run by Bienta (Enamine Biology Services)
T3 sequence (P11712 whole entry): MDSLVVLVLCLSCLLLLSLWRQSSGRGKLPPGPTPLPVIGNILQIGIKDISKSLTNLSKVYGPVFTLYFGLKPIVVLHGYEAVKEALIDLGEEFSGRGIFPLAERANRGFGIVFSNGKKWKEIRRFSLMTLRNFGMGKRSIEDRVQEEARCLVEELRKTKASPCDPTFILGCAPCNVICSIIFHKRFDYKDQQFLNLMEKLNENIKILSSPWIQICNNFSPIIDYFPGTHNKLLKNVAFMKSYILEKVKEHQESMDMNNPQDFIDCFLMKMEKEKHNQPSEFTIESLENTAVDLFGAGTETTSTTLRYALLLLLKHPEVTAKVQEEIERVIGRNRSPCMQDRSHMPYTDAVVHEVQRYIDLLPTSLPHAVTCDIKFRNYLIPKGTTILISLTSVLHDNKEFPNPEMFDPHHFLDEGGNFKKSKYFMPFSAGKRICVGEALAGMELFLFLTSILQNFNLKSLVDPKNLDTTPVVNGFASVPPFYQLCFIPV
Procedure: as §1, §2

CYP2D6 = molecular target: T4, CYP2D6 (Homo sapiens, UniProt P10635); experiment: In vitro CYP450 inhibition assay (Vivid); assay type: biochemical; conditions: probe fluorogenic Vivid CYP450 substrate (not named)
T4 construct: assay run by Bienta (Enamine Biology Services)
T4 sequence (P10635 whole entry): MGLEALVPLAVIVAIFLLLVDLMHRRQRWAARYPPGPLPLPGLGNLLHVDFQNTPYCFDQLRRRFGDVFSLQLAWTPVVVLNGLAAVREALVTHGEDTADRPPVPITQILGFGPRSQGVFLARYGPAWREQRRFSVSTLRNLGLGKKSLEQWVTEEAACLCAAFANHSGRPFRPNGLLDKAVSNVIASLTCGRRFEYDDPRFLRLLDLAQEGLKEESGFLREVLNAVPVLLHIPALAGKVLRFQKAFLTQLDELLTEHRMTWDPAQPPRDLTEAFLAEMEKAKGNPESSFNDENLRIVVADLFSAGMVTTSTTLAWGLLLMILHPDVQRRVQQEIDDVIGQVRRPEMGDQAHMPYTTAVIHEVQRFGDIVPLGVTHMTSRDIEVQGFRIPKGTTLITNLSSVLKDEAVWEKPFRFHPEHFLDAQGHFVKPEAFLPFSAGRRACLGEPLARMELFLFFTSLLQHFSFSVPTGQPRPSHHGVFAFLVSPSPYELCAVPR
Procedure: as §1, §2

CYP3A4 = molecular target: T5, CYP3A4 (Homo sapiens, UniProt P08684); experiment: In vitro CYP450 inhibition assay (Vivid); assay type: biochemical; conditions: probe fluorogenic Vivid CYP450 substrate (not named)
T5 construct: assay run by Bienta (Enamine Biology Services)
T5 sequence (P08684 2-503 limits assumed): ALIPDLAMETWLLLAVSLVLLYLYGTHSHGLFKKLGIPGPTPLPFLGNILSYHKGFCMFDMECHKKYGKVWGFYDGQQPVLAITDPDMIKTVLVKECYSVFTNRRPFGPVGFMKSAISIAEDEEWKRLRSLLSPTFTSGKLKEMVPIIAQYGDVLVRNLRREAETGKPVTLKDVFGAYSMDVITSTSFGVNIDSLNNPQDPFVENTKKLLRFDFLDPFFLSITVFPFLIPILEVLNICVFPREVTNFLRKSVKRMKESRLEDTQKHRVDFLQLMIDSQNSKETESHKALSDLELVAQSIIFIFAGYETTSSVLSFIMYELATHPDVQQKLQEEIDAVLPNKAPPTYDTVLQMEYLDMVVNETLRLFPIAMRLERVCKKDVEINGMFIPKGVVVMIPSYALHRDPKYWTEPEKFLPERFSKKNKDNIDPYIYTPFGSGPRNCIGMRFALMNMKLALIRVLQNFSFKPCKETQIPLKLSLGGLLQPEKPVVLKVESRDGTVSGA
Procedure: as §1, §2

CCRF-CEM = experiment: In vitro cytotoxic activity; assay type: cell-based; conditions: Homo sapiens
Procedure: (§3) All the compounds were also tested for their in vitro cytotoxic activity on a small panel of four cancer cell lines (CCRF-CEM, HepG2, HeLa S3, HL-60) and nonmalignant human dermal fibroblasts (NHDF).

HL-60 = experiment: In vitro cytotoxic activity; assay type: cell-based; conditions: Homo sapiens
Procedure: as §3

HeLa S3 = experiment: In vitro cytotoxic activity; assay type: cell-based; conditions: Homo sapiens
Procedure: as §3

HepG2 = experiment: In vitro cytotoxic activity; assay type: cell-based; conditions: Homo sapiens
Procedure: as §3

[2] = tested on: nonmalignant human dermal fibroblasts (NHDF); experiment: In vitro cytotoxic activity; assay type: cell-based
Procedure: as §3

[3] = tested on: MDA-MB-231 breast cancer cell line; experiment: CellTox Green cytotoxicity assay; assay type: cell-based, human; conditions: 24 h
Procedure: MDA-MB-231 cells were harvested and counted using an automated cell counter. A total of 2,500 cells per well were seeded in 20 μL of phenol red-free complete RPMI medium into black 384-well plates. Five μL of CD73 inhibitors (final concentration: […]) or 5 μL PBS (negative control) were added to each well, except for wells designed as maximal signal (dead cell) controls. Plates were incubated for 24 h at 37 °C in a humidified CO2 incubator. To generate the maximum signal control, 5 μL of lysis buffer (CellTox Green Cytotoxicity Assay, Promega) was added to the dead cell controls, followed by a 30 min incubation at room temperature. Subsequently, 25 μL/well of CellTox Green Dye (diluted 1:500 in the assay buffer; Promega) was added. Plates were incubated in the dark on an orbital shaker at 500–700 rpm for 15 min. Fluorescence was measured using an Infinite M1000 plate reader (Tecan) with excitation at 485–500 nm and emission at 520–530 nm. Data were analyzed in GraphPad Prism 10.
Figure S2: Effect of CD73 inhibition on the viability of CD73-expressing breast cancer cell line. MDA-MB-231 cells were incubated with 10 µM CD73 inhibitors for 24 hours. Viability was assessed using the CellTox™ Green Cytotoxicity Assay.
± s.d. of technical triplicates (s.d., standard deviation).
(1 picture or pasted object on this page, not shown here)

in vitro = conditions: mouse, plasma
[4] = Microsomal stability assay, human liver microsomes; assay type: in vitro ADME; conditions: for Mics (hu) comp remaining 60 min: 10 μM; for microsomal CLint at 10 µM: pooled liver microsomes, pH 7.4, read-out: Mics (hu) CLint
[5] = Microsomal stability assay, mouse liver microsomes; assay type: in vitro ADME; conditions: for Mics (m) comp remaining 60 min: 10 μM; for microsomal CLint at 10 µM: pooled liver microsomes, pH 7.4, read-out: Mics (m) CLint
[6] = male, CD-1, mouse, iv, intravenous
[7] = mouse, male CD-1 mice, intravenous, single dose, read-out: Cl (obs), observed clearance
[8] = male, CD-1, mouse, intravenous, in vivo PK in mice, unit inferred, read-out: clearance

| SMILES | half-life [1, 6] [h] | inhibition at 25 min, 10 µM (CYP1A2) [%] | inhibition at 60 min, 10 µM (CYP2C19) [%] | inhibition at 25 min, 10 µM (CYP2C9) [%] | inhibition at 25 min, 10 µM (CYP2D6) [%] | inhibition at 25 min, 10 µM (CYP3A4) [%] | IC50 (CCRF-CEM) [µM] | IC50 (HL-60) [µM] | IC50 (HeLa S3) [µM] | IC50 (HepG2) [µM] | IC50 [2] [µM] | in vitro cytotoxicity against MDA-MB-231 [3] | half-life at 10 µM (in vitro) [h] | clearance [1, 7] [mL/min/kg] | Mics (hu) comp remaining 60 min [4] [%] | microsomal CLint at 10 µM [4] [µL/min/mg] | Mics (m) comp remaining 60 min [5] [%] | microsomal CLint at 10 µM [5] [µL/min/mg] | also measured |
| --- | --- | --- | --- | --- | --- | --- | --- | --- | --- | --- | --- | --- | --- | --- | --- | --- | --- | --- | --- |
| O=P(O)(O)CP(=O)(O)OC[C@H]1O[C@@H](n2ccc3c(-c4ccc5ccccc5c4)ncnc32)[C@H](O)[C@@H]1O [4A.7] | 4.2 | 7 | 10 | 23 | -17 | -7 | > 10 | > 10 | > 10 | > 10 | > 10 | nontoxic | > 2 |  |  |  |  |  | clearance ([1]; male, CD-1, mouse, iv, in vivo PK in mice, unit inferred, read-out: clearance): 4.1 mL/min/kg |
| O=P(O)(O)CP(=O)(O)OC[C@H]1O[C@@H](n2ccc3c(-c4cccc5c4CCCC5)nc(Cl)nc32)[C@H](O)[C@@H]1O [7B.12] | 2.33 | 0 | 10 | 15 | -13 | -8 | > 10 | > 10 | > 10 | > 10 | > 10 | nontoxic | > 2 | 0.88 | 101 | < 1 | 117 | < 1 |  |
| O=P(O)(O)CP(=O)(O)OC[C@H]1O[C@@H](n2ccc3c(-c4cccc5ccncc45)ncnc32)[C@H](O)[C@@H]1O [4A.18] |  | 7 | 3 | 11 | -10 | -3 | > 10 | > 10 | > 10 | > 10 | > 10 | nontoxic | > 2 |  | 105 | < 1 |  | < 1 |  |
| O=P(O)(O)CP(=O)(O)OC[C@H]1O[C@@H](n2ccc3c(-c4ccc(F)c5ccccc45)nc(Cl)nc32)[C@H](O)[C@@H]1O [7B.28] | 1.8 | 9 | 22 | 24 | -6 | 9 | > 10 | > 10 | > 10 | > 10 | > 10 | nontoxic | > 2 | 1.7 | 95 | 2 | 101 | < 2 | unbound plasma exposure relative to mouse CD73 Ki [1]: well above |
| Cc1nc(-c2ccc3ccccc3c2)c2ccn([C@@H]3O[C@H](COP(=O)(O)CP(=O)(O)O)[C@@H](O)[C@H]3O)c2n1 [18E.7] | 1.73 |  |  |  |  |  | > 10 | > 10 | > 10 | > 10 | > 10 | nontoxic | > 2 | 4.6 | 86 | 5 | 97 | 1 |  |
| O=P(O)(O)CP(=O)(O)OC[C@H]1O[C@@H](n2ccc3c(-c4ccc5c(c4)CCCC5)nc(I)nc32)[C@H](O)[C@@H]1O [27H.23, [(5-{[2-Iodo-4-(5,6,7,8-tetrahydronaphthalen-2-yl)-7H-pyrrolo[2,3-d]pyrimidin-7-yl]-β-D-ribofuranosyl}oxy)phosphonomethyl]phosphonic Acid] | 3.08 | -4 | -7 | 11 | -12 | -23 | > 10 | > 10 | > 10 | > 10 | > 10 | nontoxic | > 2 | 3.1 | 104 | < 1 |  | 2 | clearance [1, 8]: 3.1 mL/min/kg |
| Cc1nc(-c2cccc3ccccc23)c2ccn([C@@H]3O[C@H](COP(=O)(O)CP(=O)(O)O)[C@@H](O)[C@H]3O)c2n1 [18E.6] | 5.27 | 8 | -20 | 12 | -18 | 0 | > 10 | > 10 | > 10 | > 10 | > 10 | nontoxic | > 2 | 0.32 | 98 | 1 | 95 | 1 | clearance [1, 8]: 0.32 mL/min/kg; unbound plasma exposure relative to mouse CD73 Ki [1]: well above |
| O=P(O)(O)CP(=O)(O)OC[C@H]1O[C@@H](n2ccc3c(-c4ccc5c(c4)CCCC5)nc(Cl)nc32)[C@H](O)[C@@H]1O [7B.23] | 2.23 | -17 | 3 | 21 | 6 | -23 | > 10 | 5.7 | > 10 | 9.3 | > 10 | nontoxic | > 2 | 3 | 124 | < 1 | 123 | < 1 |  |
